Data taken from patent publication US10988523B2, “Modified lipidated Relaxin B chain peptides and their therapeutic use” (Sanofi, priority 2018, dated 2021).
*1 amine or outer side, *2 acyl side, *3 side chain or, on linkers, in order; H or OH if unused. Where a SMILES comes first, the peptide text is derived from it. Side-chain parts run from the residue outwards. [ ]: non-standard residue; d: D form. The star is where a group is joined. Lys(Me3) = C[N+](C)(C)CCCC[C@H](N)C(=O)O; γGlu = O=C(O)[C@H](CCC(=O)[*:2])N[*:1]; 1Nal = N[C@@H](Cc1cccc2ccccc12)C(=O)O; Pentadecanoyl = CCCCCCCCCCCCCCC(=O)*; Arg(Me) = CNC(=N)NCCC[C@H](N)C(=O)O; Stearoyl = CCCCCCCCCCCCCCCCCC(=O)*; Palmitoyl = CCCCCCCCCCCCCCCC(=O)*; Cit = NC(=O)NCCC[C@H](N)C(=O)O; αMeK = C[C@](N)(CCCCN)C(=O)O; Nle = CCCC[C@H](N)C(=O)O; AEEA = NCCOCCOCC(=O)O; Aib = CC(C)(N)C(=O)O

Molecular target: T1, RXFP1 (Homo sapiens, UniProt Q9HBX9)
T1 construct: OVCAR5 cells expressing endogenous RXFP1; endogenous in cells; host or cells: OVCAR5 cells
T1 sequence (Q9HBX9 1-757): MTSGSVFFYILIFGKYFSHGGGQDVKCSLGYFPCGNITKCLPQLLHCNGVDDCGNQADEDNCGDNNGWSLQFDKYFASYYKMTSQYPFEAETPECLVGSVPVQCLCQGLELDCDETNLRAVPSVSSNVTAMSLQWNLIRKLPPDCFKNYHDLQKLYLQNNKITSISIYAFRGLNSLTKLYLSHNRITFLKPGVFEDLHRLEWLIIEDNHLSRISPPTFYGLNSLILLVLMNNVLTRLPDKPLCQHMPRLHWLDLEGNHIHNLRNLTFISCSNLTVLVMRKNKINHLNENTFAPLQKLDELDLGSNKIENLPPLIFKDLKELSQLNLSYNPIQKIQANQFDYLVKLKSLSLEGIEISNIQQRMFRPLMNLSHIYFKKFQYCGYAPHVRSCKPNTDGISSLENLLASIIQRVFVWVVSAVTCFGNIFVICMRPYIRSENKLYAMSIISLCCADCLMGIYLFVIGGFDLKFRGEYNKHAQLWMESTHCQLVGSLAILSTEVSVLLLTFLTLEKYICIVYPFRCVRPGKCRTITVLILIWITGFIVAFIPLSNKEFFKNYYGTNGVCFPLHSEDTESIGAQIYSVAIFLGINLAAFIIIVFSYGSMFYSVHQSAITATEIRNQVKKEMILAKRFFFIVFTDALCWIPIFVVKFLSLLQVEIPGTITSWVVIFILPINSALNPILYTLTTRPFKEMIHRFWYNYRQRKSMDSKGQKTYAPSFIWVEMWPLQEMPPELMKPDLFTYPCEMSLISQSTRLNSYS
Assay: OVCAR5 cAMP assay (HTRF), RXFP1 agonist activity
Type: cell-based
Settings: for EC50: OVCAR5 cells, cAMP HTRF, read-out: EC50 (nM), OVCAR 5 cells (cAMP); for Emax: OVCAR-5, maximal cAMP relative to H2-relaxin maximum (100%), read-out: EMax, OVCAR 5 cells (cAMP)
Outline: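 cAMP accumulation readout: after 1 mM IBMX for 40 min, endogenous-RXFP1 OVCAR5 cells got rising peptide concentrations without FCS, 30 min, 37° C, then lysis with HTRF cAMP reagents. Nonlinear regression gave EC50; Emax expressed relative to H2-relaxin maximum, same occasion.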

EC50	Emax	SMILES
26.7 nM	76%	CCCCCCCCCCCCCCCC(=O)N[C@@H](CCC(=O)N[C@@H](CCC(=O)N[C@@H](CCC(=O)NCCOCCOCC(=O)NCCCC[C@H](NC(=O)COCCOCCNC(=O)[C@H](CCCCN)NC(=O)[C@H](CCCNC(=N)N)NC(=O)C(C)(C)NC(=O)[C@H](CO)NC(=O)[C@H](Cc1c[nH]c2ccccc12)NC(=O)[C@@H](NC(=O)[C@H](CO)NC(=O)[C@H](CCCC)NC(=O)CNC(=O)[C@H](CCC(=O)O)NC(=O)C(C)(C)NC(=O)C(C)(C)NC(=O)[C@@H](NC(=O)[C@H](CCC(N)=O)NC(=O)[C@H](C)NC(=O)[C@H](CCCNC(=N)N)NC(=O)[C@@H](NC(=O)[C@H](CCCCN)NC(=O)[C@H](CCC(=O)O)NC(=O)[C@H](CCCNC(=N)N)NC(=O)CNC(=O)[C@H](CCC(=O)O)NC(=O)[C@H](CC(C)C)NC(C)=O)C(C)C)[C@@H](C)CC)[C@@H](C)O)C(N)=O)C(=O)O)C(=O)O)C(=O)O [compound 12] (Ac-LEGREKVRAQI[Aib][Aib]EG[Nle]STWS[Aib]RK[AEEA]K([AEEA-γGlu-γGlu-γGlu-Palmitoyl])-NH2)
0.09 nM	79%	CCCCCCCCCCCCCCCCCC(=O)N[C@@H](CCC(=O)NCCOCCOCC(=O)N[C@@H](CCC(=O)N[C@@H](CCC(=O)N[C@@H](CCC(=O)NCCOCCOCC(=O)NCCOCCOCC(=O)NCCCC[C@H](NC(=O)[C@H](CCCCN)NC(=O)[C@H](CCCCN)NC(=O)[C@H](CCCNC(=N)N)NC(=O)C(C)(C)NC(=O)[C@H](CO)NC(=O)[C@H](Cc1cccc2ccccc12)NC(=O)[C@@H](NC(=O)[C@H](CO)NC(=O)[C@H](CCCC)NC(=O)CNC(=O)[C@H](CCC(=O)O)NC(=O)C(C)(C)NC(=O)C(C)(C)NC(=O)[C@@H](NC(=O)[C@H](CCCCNC(C)=O)NC(=O)[C@H](C)NC(=O)[C@H](CCCNC(=N)N)NC(=O)[C@@H](NC(=O)[C@H](CCCCN)NC(=O)[C@H](CCC(=O)O)NC(=O)[C@H](CCCNC(=N)N)NC(=O)CNC(=O)[C@H](CCC(=O)O)NC(=O)[C@H](CC(C)C)NC(C)=O)C(C)C)[C@@H](C)CC)[C@@H](C)O)C(N)=O)C(=O)O)C(=O)O)C(=O)O)C(=O)O [compound 103] (Ac-LEGREKVRAK(Ac)I[Aib][Aib]EG[Nle]ST[1Nal]S[Aib]RKKK([AEEA-AEEA-γGlu-γGlu-γGlu-AEEA-γGlu-Stearoyl])-NH2)
	91%	CCCCCCCCCCCCCCCCCC(=O)N[C@@H](CCC(=O)N[C@@H](CCC(=O)N[C@@H](CCC(=O)N[C@@H](CCC(=O)NCCOCCOCC(=O)NCCOCCOCC(=O)NCCOCCOCC(=O)NCCCC[C@H](NC(=O)[C@H](CCCCNC(C)=O)NC(=O)[C@H](CCCC[N+](C)(C)C)NC(=O)[C@H](CCCNC(=N)NC)NC(=O)[C@](C)(CCCCN)NC(=O)[C@H](CO)NC(=O)[C@H](Cc1c[nH]c2ccccc12)NC(=O)[C@@H](NC(=O)[C@H](CO)NC(=O)[C@H](CCCC)NC(=O)CNC(=O)[C@H](CCC(=O)O)NC(=O)C(C)(C)NC(=O)C(C)(C)NC(=O)[C@@H](NC(=O)[C@H](CCCCNC(C)=O)NC(=O)[C@H](C)NC(=O)[C@H](CCCNC(=N)N)NC(=O)[C@@H](NC(=O)[C@H](CCCCN)NC(=O)[C@H](CCC(=O)O)NC(=O)[C@H](CCCNC(=N)N)NC(=O)CNC(=O)[C@H](CCC(=O)O)NC(=O)[C@H](CC(C)C)NC(C)=O)C(C)C)[C@@H](C)CC)[C@@H](C)O)C(N)=O)C(=O)O)C(=O)O)C(=O)O)C(=O)O [compound 138] (Ac-LEGREKVRAK(Ac)I[Aib][Aib]EG[Nle]STWS[αMeK][Arg(Me)][Lys(Me3)]K(Ac)K([AEEA-AEEA-AEEA-γGlu-γGlu-γGlu-γGlu-Stearoyl])-NH2)
0.22 nM	91%	CCCCCCCCCCCCCCCCCC(=O)N[C@@H](CCC(=O)N[C@@H](CCC(=O)N[C@@H](CCC(=O)N[C@@H](CCC(=O)NCCOCCOCC(=O)NCCOCCOCC(=O)NCCOCCOCC(=O)NCCCC[C@H](NC(=O)[C@H](CCCCNC(C)=O)NC(=O)[C@H](CCCCN)NC(=O)[C@H](CCCNC(=N)N)NC(=O)C(C)(C)NC(=O)[C@H](CO)NC(=O)[C@H](Cc1c[nH]c2ccccc12)NC(=O)[C@@H](NC(=O)[C@H](CO)NC(=O)[C@H](CCCC)NC(=O)CNC(=O)[C@H](CCC(=O)O)NC(=O)C(C)(C)NC(=O)C(C)(C)NC(=O)[C@@H](NC(=O)[C@H](CCCCNC(C)=O)NC(=O)[C@H](C)NC(=O)[C@H](CCCNC(=N)N)NC(=O)[C@@H](NC(=O)[C@H](CCCCN)NC(=O)[C@H](CCC(=O)O)NC(=O)[C@H](CCCNC(=N)N)NC(=O)CNC(=O)[C@H](CCC(=O)O)NC(=O)[C@H](CC(C)C)NC(C)=O)C(C)C)[C@@H](C)CC)[C@@H](C)O)C(N)=O)C(=O)O)C(=O)O)C(=O)O)C(=O)O [compound 128] (Ac-LEGREKVRAK(Ac)I[Aib][Aib]EG[Nle]STWS[Aib]RKK(Ac)K([AEEA-AEEA-AEEA-γGlu-γGlu-γGlu-γGlu-Stearoyl])-NH2)
0.19 nM	99%	CCCCCCCCCCCCCCC(=O)N[C@@H](CCC(=O)N[C@@H](CCC(=O)N[C@@H](CCC(=O)N[C@@H](CCC(=O)NCCCC[C@H](NC(=O)COCCOCCNC(=O)COCCOCCNC(=O)COCCOCCNC(=O)COCCOCCNC(=O)[C@H](CCCCNC(C)=O)NC(=O)[C@H](C)NC(=O)[C@H](CCCNC(=N)N)NC(=O)[C@](C)(CCCCN)NC(=O)[C@H](CO)NC(=O)[C@H](Cc1ccccc1)NC(=O)[C@@H](NC(=O)[C@H](CO)NC(=O)[C@H](CCC(N)=O)NC(=O)CNC(=O)[C@H](CCC(=O)O)NC(=O)C(C)(C)NC(=O)C(C)(C)NC(=O)[C@@H](NC(=O)[C@H](CCCCNC(C)=O)NC(=O)[C@H](C)NC(=O)[C@H](CCCNC(=N)N)NC(=O)[C@@H](NC(=O)[C@H](CCCCN)NC(=O)[C@H](CCC(=O)O)NC(=O)[C@H](CCCNC(=N)N)NC(=O)CNC(=O)[C@H](CCC(=O)O)NC(=O)[C@H](CC(C)C)NC(C)=O)C(C)C)[C@@H](C)CC)[C@@H](C)O)C(N)=O)C(=O)O)C(=O)O)C(=O)O)C(=O)O [compound 182] (Ac-LEGREKVRAK(Ac)I[Aib][Aib]EGQSTFS[αMeK]RAK(Ac)[AEEA][AEEA][AEEA][AEEA]K([γGlu-γGlu-γGlu-γGlu-Pentadecanoyl])-NH2)
	87%	CCCCCCCCCCCCCCCCCC(=O)N[C@@H](CCC(=O)N[C@@H](CCC(=O)N[C@@H](CCC(=O)NCCOCCOCC(=O)NCCOCCOCC(=O)NCCOCCOCC(=O)NCCOCCOCC(=O)NCCCC[C@H](NC(=O)[C@H](CCCCNC(C)=O)NC(=O)[C@H](C)NC(=O)[C@H](CCCNC(N)=O)NC(=O)[C@](C)(CCCCN)NC(=O)[C@H](CO)NC(=O)[C@H](Cc1c[nH]c2ccccc12)NC(=O)[C@@H](NC(=O)[C@H](CO)NC(=O)[C@H](CCCC)NC(=O)CNC(=O)[C@H](CCC(=O)O)NC(=O)C(C)(C)NC(=O)C(C)(C)NC(=O)[C@@H](NC(=O)[C@H](CCCCNC(C)=O)NC(=O)[C@H](C)NC(=O)[C@H](CCCNC(=N)N)NC(=O)[C@@H](NC(=O)[C@H](CCCCN)NC(=O)[C@H](CCC(=O)O)NC(=O)[C@H](CCCNC(=N)N)NC(=O)CNC(=O)[C@H](CCC(=O)O)NC(=O)[C@H](CC(C)C)NC(C)=O)C(C)C)[C@@H](C)CC)[C@@H](C)O)C(N)=O)C(=O)O)C(=O)O)C(=O)O [compound 132] (Ac-LEGREKVRAK(Ac)I[Aib][Aib]EG[Nle]STWS[αMeK][Cit]AK(Ac)K([AEEA-AEEA-AEEA-AEEA-γGlu-γGlu-γGlu-Stearoyl])-NH2)
	93%	CCCCCCCCCCCCCCCC(=O)N[C@@H](CCC(=O)N[C@@H](CCC(=O)N[C@@H](CCC(=O)N[C@@H](CCC(=O)NCCOCCOCC(=O)NCCOCCOCC(=O)NCCOCCOCC(=O)NCCOCCOCC(=O)NCCCC[C@H](NC(=O)[C@H](CCCCNC(C)=O)NC(=O)[C@H](CCCCN)NC(=O)[C@H](CCCNC(=N)N)NC(=O)C(C)(C)NC(=O)[C@H](CO)NC(=O)[C@H](Cc1c[nH]c2ccccc12)NC(=O)[C@@H](NC(=O)[C@H](CO)NC(=O)[C@H](CCCC)NC(=O)CNC(=O)[C@H](CCC(=O)O)NC(=O)C(C)(C)NC(=O)C(C)(C)NC(=O)[C@@H](NC(=O)[C@H](CCCCNC(C)=O)NC(=O)[C@H](C)NC(=O)[C@H](CCCNC(=N)N)NC(=O)[C@@H](NC(=O)[C@H](CCCCN)NC(=O)[C@H](CCC(=O)O)NC(=O)[C@H](CCCNC(=N)N)NC(=O)CNC(=O)[C@H](CCC(=O)O)NC(=O)[C@H](CC(C)C)NC(C)=O)C(C)C)[C@@H](C)CC)[C@@H](C)O)C(N)=O)C(=O)O)C(=O)O)C(=O)O)C(=O)O [compound 130] (Ac-LEGREKVRAK(Ac)I[Aib][Aib]EG[Nle]STWS[Aib]RKK(Ac)K([AEEA-AEEA-AEEA-AEEA-γGlu-γGlu-γGlu-γGlu-Palmitoyl])-NH2)
